Reference: ChEMBL document CHEMBL3507680, “University of Dundee, Gates Library screen for HepG2 cell viability”

Assay: Human HepG2 cell viability assay in 384 well format
Assay type: toxicity, cell-based
Design: dose 125 nL, time 70.5 hour; cytotoxicity at 70.5 h: concentration not given beside the values
Conditions: HepG2 cells, read-out: Inhibition

SMILES	cytotoxicity at 70.5 h
Cc1n[nH]c2c1C(c1ccncc1)SCC(=O)N2 (configuration not stated)	19.3%
Cc1nn(-c2ccccn2)c2c1C(c1cnn(C)c1)SCC(=O)N2 (configuration not stated)	-27.3%
COC(=O)c1ccc(C2SCC(=O)Nc3c2cnn3C(C)(C)C)cc1 (configuration not stated)	-13.2%
CC(C)(C)n1ncc2c1NC(=O)CC2c1cccs1 (configuration not stated)	-6.21%
CCn1cc(-c2nn3c(C(C)C)nnc3s2)c(C)n1	-14.2%
Cc1nn(C2CCS(=O)(=O)C2)c(O)c1Cc1ccccc1Cl (configuration not stated)	-18.5%
O=c1c(NCCO)c(N2CCN(c3ccccc3)CC2)c1=O	-4.94%
CC(C)CNC(=O)CNc1c(NCc2ccccn2)c(=O)c1=O	2.45%
Cc1nn(C2CCS(=O)(=O)C2)c(O)c1Cc1ccccc1 (configuration not stated)	-16.5%
Cc1nn(C2CCS(=O)(=O)C2)c(O)c1CCc1ccccc1 (configuration not stated)	-8.16%
COc1c[nH]c(C(=O)Nc2nc(C)cs2)cc1=O	-5.81%
Cc1cc(NC(=O)C(C#N)Cc2cnn(C)c2C)no1 (configuration not stated)	-13.8%
O=c1c(NCCNCCO)c(N2CCN(c3ccc(F)cc3)CC2)c1=O	-7.08%
COc1cccc2c1ccn2CCC(=O)Nc1c2c(nn1C)CSC2	-11.9%
CC(C)C1Nc2ccccc2C(=O)N1CC(=O)Nc1nc2c(s1)CCC2 (configuration not stated)	-15.3%
Cc1nn(C2CCS(=O)(=O)C2)c(O)c1Cc1cccc(Cl)c1 (configuration not stated)	-17.9%
Cc1cc(C(=O)NCCC2CCN(C)CC2)ccc1N(C)S(C)(=O)=O	-10.7%
CCN1CCC(CC(=O)N2CCc3sc(C(=O)N(C)C)cc3C2)CC1	20.6%
OC1(c2cn(C3CCN(C4CCSC4)CC3)nn2)CCCC1 (configuration not stated)	-4.72%
CC(NC(=O)CN(C)S(C)(=O)=O)c1ccc(F)cc1 (configuration not stated)	-11.2%
COCc1noc(-c2ccc(N(C)Cc3c(C)n[nH]c3C)nc2)n1	-5.36%
CCOc1ccc(CC(=O)N2CCCC2c2cc(C)on2)cc1 (configuration not stated)	-3.15%
CCNc1ncc(C(=O)NC2CCSC2)cn1 (configuration not stated)	8.53%
O=C1CC(c2ccsc2)c2snc(C(=O)O)c2N1 (configuration not stated)	8.48%

SMILES	cytotoxicity at 70.5 h
Cc1ccc(F)cc1NC(=O)C1CCCN1C(=O)C(C)C (configuration not stated)	-5.39%
Cc1cccnc1N1CCN(C(=O)CCc2cn3ccccc3n2)CC1	15.3%
Cc1cc(=O)c2cc(F)ccc2n1CC(=O)O	-3.7%
CCN(Cc1ccc(O)c(C(=O)O)c1)CC1CCOCC1	-0.0411%
COc1ccc(C2CCCN2S(=O)(=O)c2cc(F)ccc2F)cc1 (configuration not stated)	-6.85%
O=C(c1ccc2nccn2c1)N1CCC(CCn2cccn2)CC1	-9.36%
CCN(c1ccc(C(=O)N2CCC(C)CC2)cc1)S(=O)(=O)CC	2.02%
Cc1cnccc1N1CCN(c2nccc(CCC(F)(F)F)n2)CC1	-9.06%
COc1ccc(CNCC(O)c2cccc(O)c2)cc1Br (configuration not stated)	-3.02%
Cc1ncn(-c2cc(N3CCN(S(C)(=O)=O)CC3)ncn2)c1C	-4.92%
CCn1c(C)nnc1SCCNc1nc(C)nc2c1cnn2C	-9.87%
O=C(c1cccc(CO)n1)N1CCOC(c2ccc(Cl)c(Cl)c2)C1 (configuration not stated)	-9.7%
COCCC(=O)N1Cc2cnc(Cc3ccc(OC)cc3)nc2C1	-1.53%
CC(C)CNC(=O)c1ccc2c(=O)n(-c3ccccc3)cnc2c1	-5.61%
CN(C)C1CCCN(C(=O)c2ccc3sc4c(c3c2)CCNC4=O)CC1 (configuration not stated)	1.18%
CC(C)Oc1ccccc1OCCN1C(=O)CCNC1=O	22.4%
CCCNC(=O)CCC(=O)N1CCC(c2noc3cc(F)ccc23)CC1	-8.21%
CC(C)C(Nc1nc(C(F)(F)F)nc2ccccc12)C(=O)O (configuration not stated)	-1.94%
COCc1nc(C2CC2)nn1-c1cc(Cl)ccc1OC	-3.71%
CS(=O)(=O)N1CCN(c2ccnc(N3CCCC3)n2)CC1	-4.19%
COc1ccc(NC(=O)Cn2nc(C)c(C)cc2=O)c(OC)c1	-8.67%
Cc1cccc(CN2CCCC(O)(CNCCN3CCCCC3)C2=O)c1 (configuration not stated)	2.73%
CC(=O)c1cn(CC(=O)N2CCC3(CC2)OCCO3)c2ccccc12	-5.36%
CCC(Oc1ccc(N(C)S(C)(=O)=O)cc1)C(N)=O (configuration not stated)	-5.31%

SMILES	cytotoxicity at 70.5 h
CCOCCN1C[C@H](c2cccc(OC)c2)[C@@H](N)C1	-4.15%
N[C@H]1CN(C(=O)CCC(F)(F)F)C[C@@H]1c1ccccc1	-5.15%
Cc1ccnc(OCC(=O)N2CCN(c3ncccn3)CC2)n1	-12.6%
Cc1nc(C)c(C(=O)NCCNc2cc(N3CCCC3)ncn2)s1	9.32%
O=C(c1cncc(N2CCC3(CC2)NCCNC3=O)n1)N1CCCCC1	-4.89%
CCC(NC(=O)C(C)C)c1ccccc1C (configuration not stated)	-5.31%
CCN1CCCC(CNC(=O)C2(c3cc(C)cc(C)c3)CCC2)C1 (configuration not stated)	28.2%
CCNc1cc2c(nn1)CCN(C(=O)C(C)c1c(C)noc1C)C2 (configuration not stated)	-4.66%
CC(NC(=O)NCC1(c2ccc(F)cc2)CCCC1)c1nncn1C (configuration not stated)	-3.48%
O=C(CCn1cncn1)NC1CCc2nccn2C1 (configuration not stated)	-0.747%
COCCN1CCN(C(C)c2nc(C3CC3)no2)CC1 (configuration not stated)	17%
Cc1noc(C(C)N2CCN(CCOCC(F)(F)F)CC2)n1 (configuration not stated)	27.9%
CCOCCN1CCN(C(C)c2nc(C3CC3)no2)CC1 (configuration not stated)	12.1%
CCOc1ncccc1NC(=O)N1CCCN(C(=O)OC)CC1	-0.675%
Cc1cc(C2CCCN(C(=O)Cc3csc(C(C)C)n3)C2)n[nH]1 (configuration not stated)	-5.03%
CC(C)CC(=O)Nc1cccc(CNCc2cccs2)c1	-3.67%
CCOc1ncccc1NC(=O)N1CCN(c2ccc(O)cc2)CC1	1.58%
Cc1ccccc1C(C)N(C)Cc1nc2c(cnn2C)c(=O)[nH]1 (configuration not stated)	-6.49%
CN(CC(=O)N1CCC(N(C)c2ccccc2)CC1)c1cnccn1	0.531%
CCOc1ccc(OCCN2CCC(N3CCNC3=O)CC2)cc1	19%
CC1CN(C)CCN1CC(=O)NCCOc1cccc(F)c1 (configuration not stated)	-1.27%
Clc1ccc(CN2CCCCC2Cn2cncn2)c2ncccc12 (configuration not stated)	-0.976%
CC(C)c1ccc(OCCNC(=O)CN2CCN(C)CC2C)cc1 (configuration not stated)	1.16%
CCN1CCOC(CNCc2ccccc2OCc2ccncc2)C1 (configuration not stated)	14.2%

SMILES	cytotoxicity at 70.5 h
CNc1nc(CNC(=O)Nc2cccc(OC)c2)cs1	-0.727%
CNc1nc(CNC(=O)Nc2cccc(-c3ncc(C)o3)c2)cs1	9.47%
CNc1nc(CNC(=O)Nc2cccc(CSC)c2)cs1	-3.79%
COc1ccc(CC(=O)N2CCCC(c3cc(C)[nH]n3)C2)cc1 (configuration not stated)	-3.16%
CNc1nc(CNC(=O)Nc2cccc(C(C)OC)c2)cs1 (configuration not stated)	-4.31%
CC(=O)NCCNC(=O)CN1CCOC(Cn2cccn2)C1 (configuration not stated)	0.989%
Cn1cc(CCNC(=O)NCc2ccc3c(c2)OCCO3)cn1	2.32%
CN(Cc1cccc(F)c1)C(=O)c1cc2c([nH]c1=O)CCCC2=O	2.65%
CN(Cc1ccc2c(c1)OCO2)C(=O)NCCc1cnn(C)c1	-3.13%
CC(NC(=O)NCCCn1cncn1)c1ccc(C(F)(F)F)cc1 (configuration not stated)	-7.5%
CC(NC(=O)NCCCn1cncn1)c1ccc(F)cc1 (configuration not stated)	-4.64%
O=C1CCCc2[nH]c(=O)c(C(=O)N(Cc3ccsc3)C3CC3)cc21	-1.04%
CC(C)(C)c1nc(CN2CCN(C(=O)c3cnccn3)CC2)cs1	-1.47%
CN(Cc1cnn(C)c1)C(=O)NCc1ccc2c(c1)OCCO2	0.47%
COCCCNC(=O)CN(C)C(=O)c1ccc(-n2cccc2)cc1O	-0.626%
Cc1ccsc1CN(C)C(=O)c1cc2c([nH]c1=O)CCCC2=O	-7.76%
Cc1csc(N2CCN(CC(=O)N3CCNC3=O)CC2C)n1 (configuration not stated)	12%
Cc1csc(N2CCN(CC(=O)Nc3ccncc3)CC2C)n1 (configuration not stated)	9.84%
Cc1csc(N2CCN(CC(=O)Nc3cc(C)nn3C)CC2C)n1 (configuration not stated)	2.09%
OCCn1cc(CN2CCN(CCOc3ccc(F)cc3)CC2)cn1	-2.54%
OCCn1cc(CN2CCN(CCOc3cccc(F)c3)CC2)cn1	1.71%
Cc1csc(CNC(=O)N(C)Cc2ccncc2)n1	-0.603%
Cc1ccc(N(CCC#N)C(=O)CN2CCCC2c2ccsc2)cc1C (configuration not stated)	0.542%
COCCCNC(=O)CN(C)C(=O)c1cc2cc(C)ccc2nc1C	3.78%

SMILES	cytotoxicity at 70.5 h
CCN(CC)Cc1ccc(C(=O)N2CCCC2Cn2cc(C)cn2)o1 (configuration not stated)	2.44%
CCN(CC)Cc1ccc(C(=O)N2CCCC2Cn2cccn2)cc1 (configuration not stated)	-7.71%
Cc1ccsc1CNC(=O)N(C)Cc1cnn(C)c1	-12.7%
CCN(CC)Cc1ccc(C(=O)N2CCCC2Cn2cccn2)o1 (configuration not stated)	-1.33%
O=C(CN1CCOC(CNc2cccnn2)C1)NCc1cccs1 (configuration not stated)	-0.0167%
CN(Cc1cnn(C)c1)C(=O)NCCc1ccc2c(c1)OCCO2	-2.65%
Cn1c(CN2CCCC(Cn3cncn3)C2)nc2ccccc21 (configuration not stated)	28.9%
c1ccc2nc(CN3CCCC3c3noc(C4CC4)n3)ccc2c1 (configuration not stated)	21.2%
Cc1nc(C2CCCN2C(=O)c2ccc(N(C)C)nn2)no1 (configuration not stated)	25.8%
CSc1ccc(CNC(c2ccc(F)cc2)c2nccn2C)cc1 (configuration not stated)	0.212%
COc1cc(CNC(c2ccccc2)c2nccn2C)cc(OC)c1 (configuration not stated)	0.143%
CCCOc1ncccc1CNc1nnc(C)c(C)c1C#N	21.8%
CC1CN(CC(=O)NCc2ccccn2)CCN1Cc1nccn1C (configuration not stated)	-3.22%
CCc1nnc2n1CCN(Cc1cc(Cl)c3c(c1)OCCO3)C2	21.4%
CC1CN(CC(=O)Nc2nccs2)CCN1Cc1nccn1C (configuration not stated)	-6.31%
C=C(C)CN1CCN(Cc2nccn2C)C(C)C1 (configuration not stated)	30.2%
CC1CN(CC(=O)NC(C2CC2)C2CC2)CCN1Cc1nccn1C (configuration not stated)	-3.28%
Cc1nnc2n1CCN(Cc1ccc3c(c1)OCCO3)C2	-2.45%
CC1CN(CC(=O)NCc2ccccc2)CCN1Cc1nccn1C (configuration not stated)	0.503%
O=c1[nH]c(CN2CCCC(Cn3cncn3)C2)nc2ccccc12 (configuration not stated)	-4.42%
O=C(Nc1cccc(CNCc2ccsc2)c1)C1CC1	7.14%
